Data on one compound can be found in patent US9707233B2, “Heterocyclylamines as PI3K inhibitors” (Incyte Corporation, priority 2011, dated 2017).

The target in the experiment is PI3Kδ (Homo sapiens (Human), UniProt O00329). Briefly: PI3K enzyme assay, [γ-33P]ATP filter plate (Example A2), isoform δ. It counts as biochemical. To be noted: as determined by Assay A2; 1000 μM ATP, 2.9 nM PI3Kδ. On the procedure:
PI3K isoforms α, β, δ and γ are purchased from Millipore (Bedford, Mass.).
Inhibitors are first diluted serially in DMSO and added to the plate wells before the addition of other reaction components. The final concentration of DMSO in the assay is 0.5%. The PI3K assays are carried out at room temperature in 20 mM MOPS, pH 6.7, 10 mM MgCl2, 5 mM DTT and CHAPS 0.03%. The reaction mixture is prepared containing 50 μM PIP2, kinase and varying concentration of inhibitors. Reactions are initiated by the addition of ATP containing 2.2 μCi [γ-^33P]ATP to a final concentration of 1000 μM. […] Reactions are incubated for 180 minutes and terminated by the addition of 100 μL of 1 M potassium phosphate pH 8.0, 30 mM EDTA quench buffer. A 100 μL aliquot of the reaction solution are then transferred to 96-well Millipore MultiScreen IP 0.45 μm PVDF filter plate (The filter plate is prewetted with 200 μL 100% ethanol, distilled water, and 1 M potassium phosphate pH 8.0, respectively). […] After drying by aspiration and blotting, the plate is air dried in an incubator at 37° C. overnight. Packard TopCount adapter (Millipore) is then attached to the plate followed with addition of 120 μL Microscint 20 scintillation cocktail (Perkin Elmer) in each well. After the plate sealing, the radioactivity of the product is determined by scintillation counting on Topcount (Perkin-Elmer). […]

Sequence of PI3Kδ (O00329 whole entry, canonical isoform): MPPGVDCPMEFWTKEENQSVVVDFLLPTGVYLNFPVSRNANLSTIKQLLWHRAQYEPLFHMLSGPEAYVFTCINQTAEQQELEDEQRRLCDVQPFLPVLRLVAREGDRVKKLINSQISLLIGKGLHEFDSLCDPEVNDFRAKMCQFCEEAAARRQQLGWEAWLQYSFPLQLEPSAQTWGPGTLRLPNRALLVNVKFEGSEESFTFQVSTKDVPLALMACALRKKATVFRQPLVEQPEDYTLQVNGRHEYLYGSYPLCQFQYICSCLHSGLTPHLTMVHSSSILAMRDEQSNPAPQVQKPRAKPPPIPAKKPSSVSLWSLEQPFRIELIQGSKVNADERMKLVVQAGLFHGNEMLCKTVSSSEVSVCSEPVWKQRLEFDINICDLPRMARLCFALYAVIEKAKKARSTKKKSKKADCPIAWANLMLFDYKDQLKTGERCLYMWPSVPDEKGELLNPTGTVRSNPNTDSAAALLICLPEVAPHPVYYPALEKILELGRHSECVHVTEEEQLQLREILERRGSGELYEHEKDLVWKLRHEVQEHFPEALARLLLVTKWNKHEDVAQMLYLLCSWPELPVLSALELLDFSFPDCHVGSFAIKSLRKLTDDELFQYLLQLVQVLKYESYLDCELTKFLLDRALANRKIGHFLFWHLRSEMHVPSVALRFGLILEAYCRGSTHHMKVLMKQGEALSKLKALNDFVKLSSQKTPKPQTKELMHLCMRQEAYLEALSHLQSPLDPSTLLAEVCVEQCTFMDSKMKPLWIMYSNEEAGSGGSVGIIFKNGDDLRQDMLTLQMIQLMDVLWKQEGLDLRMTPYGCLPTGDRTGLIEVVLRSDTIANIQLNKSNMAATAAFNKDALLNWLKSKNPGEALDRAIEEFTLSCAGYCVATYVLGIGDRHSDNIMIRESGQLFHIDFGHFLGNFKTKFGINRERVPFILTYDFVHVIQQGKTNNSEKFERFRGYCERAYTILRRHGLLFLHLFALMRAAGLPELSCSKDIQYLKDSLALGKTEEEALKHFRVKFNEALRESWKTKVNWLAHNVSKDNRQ
Sequence of PI3Kδ (P27986 whole entry partner, canonical isoform): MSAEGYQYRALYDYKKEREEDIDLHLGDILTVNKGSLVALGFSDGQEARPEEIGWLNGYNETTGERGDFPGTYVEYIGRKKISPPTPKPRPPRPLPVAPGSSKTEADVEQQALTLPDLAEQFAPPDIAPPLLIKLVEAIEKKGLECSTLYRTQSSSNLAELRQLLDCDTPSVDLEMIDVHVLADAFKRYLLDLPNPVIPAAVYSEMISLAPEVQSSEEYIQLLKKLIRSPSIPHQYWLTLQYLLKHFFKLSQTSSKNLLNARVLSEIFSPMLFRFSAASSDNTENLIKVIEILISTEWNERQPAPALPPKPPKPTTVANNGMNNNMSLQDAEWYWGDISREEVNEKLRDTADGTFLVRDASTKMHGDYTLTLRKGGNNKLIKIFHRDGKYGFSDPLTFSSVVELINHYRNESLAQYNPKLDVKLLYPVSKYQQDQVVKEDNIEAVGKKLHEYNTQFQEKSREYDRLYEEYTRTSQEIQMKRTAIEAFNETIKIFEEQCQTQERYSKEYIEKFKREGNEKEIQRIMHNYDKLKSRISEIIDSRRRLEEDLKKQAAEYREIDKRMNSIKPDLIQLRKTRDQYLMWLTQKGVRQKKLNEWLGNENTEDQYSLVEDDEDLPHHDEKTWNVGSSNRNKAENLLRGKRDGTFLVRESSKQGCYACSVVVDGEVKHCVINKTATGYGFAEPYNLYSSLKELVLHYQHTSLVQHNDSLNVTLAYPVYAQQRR

A word on the IC50: it is the concentration that gives 50% inhibition. Read a high IC50 as weaker potency. For the compound `COc1c([C@@H](C)n2nc(C)c3c(N)ncnc32)cc(Cl)c(C#N)c1C1CN(C[C@@H](C)O)C1` [Example 363, 4-((R)-1-(4-amino-3-methyl-1H-pyrazolo[3,4-d]pyrimidin-1-yl)ethyl)-6-chloro-2-(1-((R)-2-hydroxypropyl)azetidin-3-yl)-3-methoxybenzonitrile], the IC50 lay in the range of 50 to 200 nM.
